Data: patent US11773084B1, “4-arylamino-2-(6-indolylamino)pyrimidine compounds as antibacterial agents” (KING FAISAL UNIVERSITY, priority 2023, dated 2023)
pIC50: −log10 of the molar value. ≈ marks a conversion by molar mass, not a printed value. Like-named read-outs stand apart in the source and are kept apart here.

Columns and labels:
[1] = test system: Escherichia coli MTCC 443; test: In vitro antibacterial activity (CLSI M07-A10 dilution MIC); type: cell-based
[2] = test system: Bacillus subtilis MTCC 441; test: as above; type: cell-based; conditions: MTCC441
[3] = test system: Enterococcus faecium ATCC 51559 (VRE resistant); test: as above; type: cell-based
[4] = test system: Staphylococcus epidermidis; test: as above; type: cell-based
[5] = test system: Enterococcus faecium ATCC 35667; test: as above; type: cell-based; conditions: ATCC35667
[6] = test system: Klebsiella pneumonia MTCC 618; test: as above; type: cell-based; conditions: Klebsiella pneumoniae, MTCC618
[7] = test system: Staphylococcus aureus ATCC 29213; test: as above; type: cell-based; conditions: ATCC29213
[8] = test system: Mycobacterium tuberculosis H37Rv strain; test: Anti-tubercular alamar blue microplate MIC assay; type: cell-based; conditions: seven days 37° C.
DNA gyrase from E. coli = target: T1, DNA gyrase from E. coli (Escherichia coli, UniProt P0AES4+P0AES6); test: E. coli DNA gyrase inhibition (Inspiralis assay); type: biochemical
T1 construct: purchased Inspiralis
T1 sequence (P0AES4 whole entry, one chain of several): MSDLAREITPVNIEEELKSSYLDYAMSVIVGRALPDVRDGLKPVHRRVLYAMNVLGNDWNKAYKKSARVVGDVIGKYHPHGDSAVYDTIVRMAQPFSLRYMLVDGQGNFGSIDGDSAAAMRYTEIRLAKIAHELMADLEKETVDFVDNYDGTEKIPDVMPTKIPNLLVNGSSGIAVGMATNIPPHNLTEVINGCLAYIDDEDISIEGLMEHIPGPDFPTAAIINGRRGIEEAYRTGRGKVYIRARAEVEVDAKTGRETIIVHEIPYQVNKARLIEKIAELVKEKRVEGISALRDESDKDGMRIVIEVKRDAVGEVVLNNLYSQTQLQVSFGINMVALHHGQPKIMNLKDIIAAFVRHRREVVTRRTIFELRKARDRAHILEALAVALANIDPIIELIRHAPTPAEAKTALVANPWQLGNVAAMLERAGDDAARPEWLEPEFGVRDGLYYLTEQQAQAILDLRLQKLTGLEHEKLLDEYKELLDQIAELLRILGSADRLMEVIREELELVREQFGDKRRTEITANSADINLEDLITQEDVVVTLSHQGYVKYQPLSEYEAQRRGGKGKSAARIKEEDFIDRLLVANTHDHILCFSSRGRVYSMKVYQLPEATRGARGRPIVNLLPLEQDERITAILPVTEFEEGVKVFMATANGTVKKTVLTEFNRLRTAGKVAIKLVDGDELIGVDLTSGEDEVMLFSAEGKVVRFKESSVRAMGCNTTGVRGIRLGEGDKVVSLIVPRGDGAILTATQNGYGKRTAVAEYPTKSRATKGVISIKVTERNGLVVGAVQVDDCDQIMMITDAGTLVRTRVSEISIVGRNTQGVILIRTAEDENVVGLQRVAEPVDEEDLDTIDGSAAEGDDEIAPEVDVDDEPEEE
Experimental: First, the plates were rehydrated with buffer (20 mM Tris-HCl with pH 7.6, 0.01% w/v BSA, 0.05% v/v Tween 20, 137 mM NaCl) and the biotinylated oligonucleotide was then immobilized. After washing off the unbound oligonucleotide, the enzyme test was performed. […] Reaction solutions were incubated at 37° C. for 30 min. After that, the TF buffer (50 mM NaOAc with pH 5.0, 50 mM NaCl and 50 mM MgCl2) was added to terminate the enzymatic reaction. After additional incubation for 30 min at rt, during which biotinoligonucleotide-plasmid triplex was formed, the unbound plasmid was washed off using TF buffer and SybrGOLD in T10 buffer (10 mM Tris HCl with pH 8.0 and 1 mM EDTA) was added. The fluorescence was measured with a microplate reader (BioTek Synergy H4, excitation: 485 nm, emission: 535 nm). […] GraphPad Prism software was used to calculate the IC50 values. The result is given as the average value of three independent measurements.

[9] = test system: Staphylococcus aureus ATCC BAA-1556 (MERSA resistant); test: In vitro antibacterial activity (CLSI M07-A10 dilution MIC); type: cell-based; conditions: ATCCBAA1556
[10] = Escherichia coli MTCC 443 + PABN

Structure (SMILES)	MIC [1, 10] [µg/mL]	MIC ([1]; MTCC443, Escherichia coli MTCC 443, read-out: MIC) [µg/mL]	MIC ([2]; Bacillus subtilis MTCC 441, read-out: MIC) [µg/mL]	MIC ([3]; Enterococcus faecium ATCC 51559 (VRE resistant), read-out: MIC) [µg/mL]	MIC ([4]; read-out: MIC) [µg/mL]	MIC ([5]; Enterococcus faecium ATCC 35667, read-out: MIC) [µg/mL]	MIC ([6]; Klebsiella pneumonia MTCC 618, read-out: MIC) [µg/mL]	MIC ([7]; Staphylococcus aureus ATCC 29213, read-out: MIC) [µg/mL]	anti-mycobacterial activity (MIC) [8] [micro-g/mL]	pIC50 (DNA gyrase from E. coli)	MIC ([9]; Staphylococcus aureus ATCC BAA-1556 (MERSA resistant), read-out: MIC) [µg/mL]	MIC ([1]; Escherichia coli, MTCC443) [µg/mL]	MIC ([2]; Bacillus subtilis) [µg/mL]	MIC ([3]; Enterococcus faecium) [µg/mL]	MIC [4] [µg/mL]	MIC ([5]; Enterococcus faecium) [µg/mL]	MIC [6] [µg/mL]	MIC ([7]; Staphylococcus aureus) [µg/mL]	MIC ([9]; Staphylococcus aureus) [µg/mL]
CCCCCN(C)Cc1cc(C(=O)O)ccc1Nc1ccnc(Nc2ccc3cc(C)[nH]c3c2)n1 [Example 8, 3-((methyl(pentyl)amino)methyl)-4-((2-((2-methyl-1H-indol-6-yl)amino)pyrimidin-4-yl)amino)benzoic acid]	2	32 (≈ 67.7 µM)	2 (≈ 4.23 µM)	4 (≈ 8.46 µM)	8 (≈ 16.9 µM)	2 (≈ 4.23 µM)	2 (≈ 4.23 µM)	4 (≈ 8.46 µM)	8	6.50	4 (≈ 8.46 µM)	–	–	–	–	–	–	–	–
CN[C@H](CC(C)C)C(=O)N[C@H]1C(=O)N[C@@H](CC(N)=O)C(=O)N[C@H]2C(=O)N[C@H]3C(=O)N[C@H](C(=O)N[C@H](C(=O)O)c4cc(O)cc(O)c4-c4cc3ccc4O)[C@H](O)c3ccc(c(Cl)c3)Oc3cc2cc(c3O[C@@H]2O[C@H](CO)[C@@H](O)[C@H](O)[C@H]2O[C@H]2C[C@](C)(N)[C@H](O)[C@H](C)O2)Oc2ccc(cc2Cl)[C@H]1O [Vancomycin, reference compound]	>128	–	–	–	–	–	–	–	–	–	–	> 128	0.5 (≈ 0.345 µM)	> 128	1 (≈ 0.69 µM)	0.5 (≈ 0.345 µM)	> 128	1 (≈ 0.69 µM)	1 (≈ 0.69 µM)
